According to US20080287396A1, “Phosphonated Fluoroquinolones, Antibacterial Analogs Thereof, and Methods for the Prevention and Treatment of Bone and Joint Infections” (TARGANTA THERAPEUTICA INC., priority 2005, published 2008):

Key:
Hela cells = assay: Cytotoxicity assay (MTS reduction); type: cell-based; conditions: concentrations up to 100 μM, 18 h, MTS reagent; data not shown
Procedure: Selected compounds were also tested for their ability to inhibit growth of mammalian cells so as to ascertain levels of cytotoxicity to the mammalian host, via an assay measuring the biological reduction of the inner salt of (3-(4,5-dimethylthiazol-2-yl)-5-(3-carboxymethoxyphenyl)-2-(4-sulfophenyl)-2H-tetrazolium (MTS reagent). Assays were performed in 96-well microtiter plates. Briefly, compounds at 100, 50, 25, and 12.5 μM concentrations were incubated with 2×10^4 Hela cells per well in Dulbecco's Modified Eagle Medium (Invitrogen Corporation) containing 1% Bovine Growth Serum (HyClone) for 18 h at 37° C. under 5% CO2.

[1] = Regeneration of drug from bone powder-bound prodrug; type: in vitro ADME; conditions: for drug released from the bone matter after 24 h, in words / drug released from the bone matter after 7 days of incubation, in words: medium not stated
Procedure: Amounts of drug “regenerated” from the phosphonated parent prodrug were measured as follows. Washed bone powder-bound prodrugs from the above section were resuspended in 400 μL PBS or in 400 μL 50% (v/v in PBS) human or rat serum. […] Methanol (5× volume relative to supernatant) was added to each supernatant and the mixture was vortexed on a floor model vortex for 15 min to extract freed fluoroquinolone. The mixture was then centrifuged at 10 000 rpm for 15 min to pellet the insoluble material. The supernatant containing the extracted fluoroquinolone was recovered and evaporated to dryness in a speed vac. The dried pellets were resuspended in PBS and the amount of fluoroquinolone was determined by fluorescence measurements as described above. The percentage of drug regenerated was deduced from the difference between amount of bound prodrug and the amount of regenerated drug. The identity of regenerated drug was deduced by MIC determination; MICs of regenerated material matched those of parent drugs but not those of prodrugs.

[2] = Bone powder binding, fluorometric detection; conditions: 1 mg/ml compound, bone meal powder 10 mg/ml in PBS, 37° C., 1 h
Procedure: The ability of the example molecules to bind to bone powder was established in two parallel fashions, using either LC/MS or fluorometric detection. For LC/MS detection, a stock solution (5 mM) of the compound to be tested was added to 0.1M Tris-HCl buffer pH 7, 0.15M NaCl to reach a final concentration of 100 μM. Triplicate samples (1 mL) of the compound solutions were intensively shaken for 10 min with or without 25 mg of fresh or 20 mg of vacuum dried ground rat tibia bone. The samples were then centrifuged for 15 min at 10 000 g. The presence of unbound compound was measured by injection of 30 μL of each of the supernatants into an Agilent 1100™ LC/UV system. For fluorometric detection, an individual compound was dissolved in PBS or water (compound 52) and resuspended at a concentration of 1 mg/ml in a slurry of bone meal powder (Now Foods, Bloomingdale, Ill., USA) in PBS at 10 mg/ml. The suspension of drug/prodrug in bone meal powder was incubated at 37° C. for 1 h to allow for binding, and centrifuged at 13 000 rpm for 2 min, before recovering the supernatant. The bone meal powder pellet was then washed three times with 1 ml of PBS. All supernatants were saved and assessed for fluoroquinolone content by fluorescence measurements at excitation/emission wavelengths of 280/465 nm. The amount of fluoroquinolone was determined from standard curves generated for each experiment. Amount of drug/prodrug bound to bone powder was deduced from the difference between the input amount (typically 1 mg) and the amount recovered in the supernatants after binding. In all binding experiments, >99% of input drug was recovered in the supernatant for the parent drugs.

drug released from the bone matter after 24 h, in words [1]	drug released from the bone matter after 7 days of incubation, in words [1]	Binding to bone (%) Fluorescence [2]	effect of the medium (presence or absence of serum) on regeneration rate ([1]; PBS vs serum)	SMILES	cytotoxicity (Hela cells)
not measurable amount of drug released	only trace amounts	92.2%		COc1c(N2C[C@@H]3CCCN(CC(P(=O)(O)O)P(=O)(O)O)[C@@H]3C2)c(F)cc2c(=O)c(C(=O)O)cn(C3CC3)c12 [Compound 5, 7-((4aS,7aS)-1-(2,2-bisphosphonoethyl)-octahydropyrrolo[3,4-b]pyridin-6-yl)-1-cyclopropyl-6-fluoro-1,4-dihydro-8-methoxy-4-oxoquinoline-3-carboxylic acid]	no signs of any cytotoxicity
not measurable amount of drug released		99.6%		O=C(O)c1cn(C2CC2)c2cc(N3CCN(CC(P(=O)(O)O)P(=O)(O)O)CC3)c(F)cc2c1=O [Compound 8, 7-(4-(2,2-bisphosphonoethyl)piperazin-1-yl)-1-cyclopropyl-6-fluoro-1,4-dihydro-4-oxoquinoline-3-carboxylic acid]	no signs of any cytotoxicity
	signs of drug release	93.8%		COc1c(N2C[C@@H]3CCCN[C@@H]3C2)c(F)cc2c(=O)c(C(=O)OCCCC(P(=O)(O)O)P(=O)(O)O)cn(C3CC3)c12 [Compound 14, 4,4-bisphosphonobutyl 7-((4aS,7aS)-octahydropyrrolo[3,4-b]pyridin-6-yl)-1-cyclopropyl-6-fluoro-1,4-dihydro-8-methoxy-4-oxoquinoline-3-carboxylate]	no signs of any cytotoxicity
		88.9%	fairly similar rates	COc1c(N2CCNC(C)C2)c(F)cc2c(=O)c(C(=O)OCC(=O)Nc3ccc(CC(P(=O)(O)O)P(=O)(O)O)cc3)cn(C3CC3)c12 (stereo not shown) [Compound 64, (4-(2,2-Bisphosphonoethyl)phenylcarbamoyl)methyl 7-(3-methylpiperazin-1-yl)-1-cyclopropyl-6-fluoro-1,4-dihydro-8-methoxy-4-oxoquinoline-3-carboxylate]	no signs of any cytotoxicity
